Results taken from the supplement of paper PMC10307832.

Tests used:
Test in all cases: relative viability (nuclei count vs DMSO), 5 days (fraction); higher = more cells survive
[1] = compound: CN(C)C/C=C/C(=O)Nc1cc2c(Nc3ccc(F)c(Cl)c3)ncnc2cc1O[C@H]1CCOC1 [Afatinib] + Nc1ncn([C@H]2C[C@H](O)[C@@H](CO)O2)c(=O)n1 [Decitabine] (partner 2 µM)
How it was run: (§1)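 Dosing by pin tool came one day after lung cancer cell lines were seeded in 1536-well plates, using either one drug or a fixed anchor-drug dose plus five library-drug doses (not always all listed) in √10 steps. After 5 days, nuclei were counted on 4× images. Relative viability is treated-well nuclei count divided by vehicle-well nuclei count, and values are medians of duplicate plates.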

[2] = compound: CN(C)C/C=C/C(=O)Nc1cc2c(Nc3ccc(F)c(Cl)c3)ncnc2cc1O[C@H]1CCOC1 [Afatinib] + COc1cc2c(Oc3ccc(NC(=O)C4(C(=O)Nc5ccc(F)cc5)CC4)cc3F)ccnc2cc1OCCCN1CCOCC1 [Foretinib] (partner 0.25 µM)
How it was run: as §1

[3] = compound: CN(C)C/C=C/C(=O)Nc1cc2c(Nc3ccc(F)c(Cl)c3)ncnc2cc1O[C@H]1CCOC1 [Afatinib] + Cc1nc(Nc2ncc(C(=O)Nc3c(C)cccc3Cl)s2)cc(N2CCN(CCO)CC2)n1 [Dasatinib] (partner 0.075 µM)
How it was run: as §1

[4] = compound: CN(C)C/C=C/C(=O)Nc1cc2c(Nc3ccc(F)c(Cl)c3)ncnc2cc1O[C@H]1CCOC1 [Afatinib] + CCNC(=O)c1noc(-c2cc(C(C)C)c(O)cc2O)c1-c1ccc(CN2CCOCC2)cc1 [Luminespib] (partner 0.01 µM)
How it was run: as §1

| Cell Line | relative viability ([1]; first compound 0.005 µM) | relative viability ([1]; first compound 0.01581 µM) | relative viability ([1]; first compound 0.05 µM) | relative viability ([1]; first compound 0.1581 µM) | relative viability ([1]; first compound 0.5 µM) | relative viability ([2]; first compound 0.005 µM) | relative viability ([2]; first compound 0.01581 µM) | relative viability ([2]; first compound 0.05 µM) | relative viability ([2]; first compound 0.1581 µM) | relative viability ([2]; first compound 0.5 µM) | relative viability ([3]; first compound 0.005 µM) | relative viability ([3]; first compound 0.01581 µM) | relative viability ([3]; first compound 0.05 µM) | relative viability ([3]; first compound 0.1581 µM) | relative viability ([3]; first compound 0.5 µM) | relative viability ([4]; first compound 0.005 µM) | relative viability ([4]; first compound 0.01581 µM) | relative viability ([4]; first compound 0.05 µM) | relative viability ([4]; first compound 0.1581 µM) | relative viability ([4]; first compound 0.5 µM) |
| --- | --- | --- | --- | --- | --- | --- | --- | --- | --- | --- | --- | --- | --- | --- | --- | --- | --- | --- | --- | --- |
| 201T | 0.857 | 0.867 | 0.844 | 0.78 | 0.822 | 1.04 | 1.05 | 1.01 | 0.949 | 1.17 | 0.589 | 0.517 | 0.581 | 0.56 | 0.544 | 1.01 | 1.02 | 1.03 | 0.975 | 1.03 |
| A549 | 0.28 | 0.272 | 0.278 | 0.232 | 0.299 | 0.826 | 0.835 | 0.781 | 0.806 | 0.861 | – | – | – | – | – | – | – | – | – | – |
| A-427 | 0.556 | 0.594 | 0.551 | 0.502 | 0.511 | 0.85 | 1.05 | 1.11 | 0.947 | 1.02 | 0.661 | 0.741 | 0.631 | 0.669 | 0.72 | 1.1 | 0.926 | 1.04 | 0.968 | 0.915 |
| ABC-1 | 1.09 | – | 1.26 | 0.928 | 1.05 | 1.25 | 1.01 | 1.08 | 0.743 | 1.21 | 0.559 | 0.58 | 0.621 | 0.472 | 0.516 | 0.938 | 0.717 | 0.538 | 0.2 | 0.857 |
| BEN | 0.727 | 0.707 | 0.666 | 0.736 | 0.919 | 0.719 | 0.63 | 0.651 | 0.634 | 0.775 | 0.337 | 0.283 | 0.323 | 0.336 | 0.313 | 0.366 | 0.24 | 0.261 | 0.549 | 0.288 |
| CAL-12T | – | – | – | – | – | 1.15 | 1.02 | 1.29 | 0.56 | 0.684 | 0.261 | 0.236 | 0.193 | 0.189 | 0.194 | 0.865 | 0.595 | 0.361 | 0.279 | 0.27 |
| COR-L23 | 0.504 | 0.436 | 0.468 | 0.47 | 0.529 | 1.16 | 0.981 | 0.946 | 1 | 1.01 | 0.575 | 0.484 | 0.536 | 0.426 | 0.535 | 0.804 | 0.603 | 0.773 | 0.644 | 0.68 |
| COR-L 105 | 0.552 | 0.433 | 0.415 | 0.338 | 0.356 | 0.385 | 0.448 | 0.37 | 0.287 | 0.318 | 0.206 | 0.119 | 0.142 | 0.137 | 0.148 | 0.678 | 0.476 | 0.445 | 0.307 | 0.272 |
| Calu-6 | – | – | – | – | – | 0.913 | 0.975 | 0.882 | 0.88 | 0.93 | – | – | – | – | – | – | – | – | – | – |
| ChaGo-K-1 | 0.558 | 0.538 | 0.525 | 0.525 | 0.469 | 0.86 | 0.882 | 0.876 | 0.86 | 0.846 | 0.631 | 0.52 | 0.535 | 0.65 | 0.541 | 0.688 | 0.652 | 0.566 | 0.499 | 0.579 |
| EBC-1 | – | – | – | – | – | 0.105 | 0.0995 | 0.0925 | 0.109 | 0.0966 | – | – | – | – | – | – | – | – | – | – |
| EKVX | 0.248 | 0.208 | 0.218 | 0.159 | 0.171 | 0.838 | 0.428 | 0.453 | 0.129 | 0.318 | 0.334 | 0.429 | 0.339 | 0.319 | 0.231 | 0.714 | 0.858 | 0.58 | 0.191 | 0.298 |
| EMC-BAC-2 | 0.968 | 0.924 | 0.98 | 0.901 | 1.02 | 1.03 | 0.952 | 0.865 | 0.753 | 0.928 | 0.314 | 0.302 | 0.33 | 0.315 | 0.296 | 1.23 | 1.13 | 1.13 | 1.04 | 1.16 |
| EPLC-272H | 0.355 | 0.328 | 0.359 | 0.309 | 0.348 | 0.492 | 0.426 | 0.406 | 0.381 | 0.355 | 0.326 | 0.341 | 0.262 | 0.253 | 0.244 | 0.239 | 0.482 | 0.228 | 0.267 | 0.172 |
| H3255 | 0.256 | 0.167 | 0.179 | 0.189 | 0.172 | 0.861 | 0.134 | 0.2 | 0.216 | 0.188 | 0.202 | 0.195 | 0.264 | 0.326 | 0.242 | 0.461 | 0.234 | 0.303 | 0.336 | 0.269 |
| HARA | 0.548 | – | 0.413 | 0.325 | 0.349 | 0.825 | 0.451 | 0.401 | 0.377 | 0.403 | 0.179 | 0.182 | 0.217 | 0.178 | 0.209 | 0.719 | 0.327 | 0.425 | 0.334 | 0.458 |
